According to patent US9259443B2, “Compositions and methods for the generation of platelets and methods of use thereof” (The Children's Hospital of Philadelphia, priority 2010, dated 2016):

Columns and labels:
NSG mice = assay: Infusion of human platelets or human ex vivo-grown megakaryocytes into NSG mice; format: in vivo, mouse; conditions: for time of spike of platelets after infusion: NSG mice; for platelets per megakaryocyte: two million large cells
Description: FIG. 7A provides a graph of human platelets infused into immune-suppressed NOD/SCID/[…] NSG mice over time. FIG. 7B provides a graph of the percentage of human platelets over time after infusion of fetal liver megakaryocytes into NSG mice. FIG. 7C provides a graph of human platelets over time after infusion of dimethylfasudil (diMF; 5 μM), a Rho/ROCK1 kinase inhibitor, treated human fetal liver megakaryocytes (large cells) into NSG mice. FIG. 7D provides a graph of human platelets over time after infusion of human megakaryocytes (large cell) from CD34+ bone marrow cells into NSG mice. FIG. 7E provides a graph of human platelets over time after infusion of dimethylfasudil (2 μM)-treated human CD34+ bone marrow megakaryocytes (large cell) into NSG mice.
NSG mice (Shultz et al. (2007) Nat. Rev. Immunol., 7:118-130; Shultz et al. (2005) J. Immunol., 174:6477-89) were infused with human platelets. […] When human fetal liver (FL) megakaryocytes were infused into NSG mice, a spike of platelets was observed within 10 hours of infusion (FIG. 7B). Two million large cells infused yielded about 13 platelets per megakaryocyte.
To increase platelet production, dimethylfasudil (diMF), a Rho/ROCK1 kinase inhibitor, was tested for its ability to promote human FL megakaryocyte maturation. […] Further, the infusion of two million large cells yielded only about 6 platelets per megakaryocyte. Next, human-Megs (large) from bone marrow (BM) CD34+ cells were infused into NSG mice. […] Further, the infusion of two million large cells yielded about 70 platelets per megakaryocyte. When BM CD34+ Megs (large) were treated with DiMF (2 μm) and infused into NSG mice, a spike of platelets was observed immediately (FIG. 7E). Further, the infusion of two million large cells yielded only about 4 platelets per megakaryocyte.

hαIIb+ recipient mice = assay: FL cells grown with metalloproteinase (ADAM17) inhibitors, infused into hαIIb+ mice, derived platelet half-life; format: in vivo, mouse
[1] = BM CD34+ Megs (large) treated with DiMF 2 μm
[2] = human FL-megakaryocytes (large) treated with DiMF 5 μm

Cc1cncc2cccc(S(=O)(=O)N3CCCNC[C@@H]3C)c12 [DiMF, dimethylfasudil]
time of spike of platelets after infusion (NSG mice; [1]): immediately | platelets per megakaryocyte (NSG mice; [1]): about 4 | time of spike of platelets after infusion (NSG mice; [2]): within about one hour | platelets per megakaryocyte (NSG mice; [2]): about 6

CNC(=O)[C@H](Cc1c[nH]c2ccccc12)NC(=O)[C@@H](CC(=O)NO)CC(C)C [GM6001]
change in derived platelet half-life (hαIIb+ recipient mice; FL cells grown with GM6001 100 μM): no change

CC(C)C[C@H](CC(=O)NO)C(=O)N[C@@H](Cc1ccc2ccccc2c1)C(=O)N[C@@H](C)C(=O)NCCN [TAP-1]
change in derived platelet half-life (hαIIb+ recipient mice; FL cells grown with TAP-1 10 μM): no change
